{"source": "PubChem BioAssay AID248", "about": "(DTP/NCI, 2004)", "system": "L1210 leukemia ip in BDF1 mice, survival T/C", "assay": "NCI In Vivo Anticancer Drug Screen. Data for tumor model L1210 Leukemia (intraperitoneal) in B6D2F1 (BDF1) mice", "conditions": "endpoint: mean survival time, higher = longer survival", "procedure,_shortened": "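Tumor cells were implanted, animals were treated, and survival was followed. The result divides the treated measurement by the vehicle-control measurement.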", "key": {"[1]": {"conditions": "dose: 100.0 mg/kg/injection, schedule: Q01DX009 (ip), vehicle: Klucel (hydroxypropylcellulose) (HPC)"}, "[2]": {"conditions": "dose: 100.0 mg/kg/injection, schedule: Q04DX003 (ip), vehicle: Klucel (hydroxypropylcellulose) (HPC)"}, "[3]": {"conditions": "dose: 200.0 mg/kg/injection, schedule: Q01DX009 (ip), vehicle: Klucel (hydroxypropylcellulose) (HPC)"}, "[4]": {"conditions": "dose: 200.0 mg/kg/injection, schedule: Q04DX003 (ip), vehicle: Klucel (hydroxypropylcellulose) (HPC)"}, "[5]": {"conditions": "dose: 100.0 mg/kg/injection, schedule: Q01DX009 (ip), vehicle: saline with Tween-80"}, "[6]": {"conditions": "dose: 100.0 mg/kg/injection, schedule: Q04DX003 (ip), vehicle: saline with Tween-80"}, "[7]": {"conditions": "dose: 200.0 mg/kg/injection, schedule: Q01DX009 (ip), vehicle: saline with Tween-80"}, "[8]": {"conditions": "dose: 200.0 mg/kg/injection, schedule: Q04DX003 (ip), vehicle: saline with Tween-80"}, "[9]": {"conditions": "dose: 400.0 mg/kg/injection, schedule: Q01DX009 (ip), vehicle: saline with Tween-80"}, "[10]": {"conditions": "dose: 400.0 mg/kg/injection, schedule: Q04DX003 (ip), vehicle: saline with Tween-80"}, "[11]": {"conditions": "dose: 100.0 mg/kg/injection, schedule: Q04DX002 (ip), vehicle: Klucel (hydroxypropylcellulose) (HPC)"}, "[12]": {"conditions": "dose: 200.0 mg/kg/injection, schedule: Q04DX002 (ip), vehicle: Klucel (hydroxypropylcellulose) (HPC)"}, "[13]": {"conditions": "dose: 400.0 mg/kg/injection, schedule: Q04DX002 (ip), vehicle: Klucel (hydroxypropylcellulose) (HPC)"}}, "note": "Toxic doses and inconclusive results are not listed.", "data": [{"smiles": "c1ccc(-c2ccc([Si](c3ccccc3)(c3ccc(-c4ccccc4)cc3)c3ccc(-c4ccccc4)cc3)cc2)cc1", "values": [{"measurement": "T/C", "setting": "dose: 50.0 mg/kg/injection, schedule: Q01DX009 (ip), vehicle: Klucel (hydroxypropylcellulose) (HPC)", "result": "91 % of control"}, {"measurement": "T/C", "setting": "dose: 50.0 mg/kg/injection, schedule: Q04DX003 (ip), vehicle: Klucel (hydroxypropylcellulose) (HPC)", "result": "93 % of control"}, {"measurement": "T/C", "setting": "[1]", "result": "93 % of control"}, {"measurement": "T/C", "setting": "[2]", "result": "89 % of control"}, {"measurement": "T/C", "setting": "[3]", "result": "93 % of control"}, {"measurement": "T/C", "setting": "[4]", "result": "88 % of control"}]}, {"smiles": "CCOC(=O)c1csc(CNC(=O)c2ccccc2)n1", "values": [{"measurement": "T/C", "setting": "dose: 100.0 mg/kg/injection, schedule: Q01DX001 (ip), vehicle: saline with Tween-80", "result": "107 % of control"}, {"measurement": "T/C", "setting": "[5]", "result": "100 % of control"}, {"measurement": "T/C", "setting": "[6]", "result": "97 % of control"}, {"measurement": "T/C", "setting": "dose: 200.0 mg/kg/injection, schedule: Q01DX001 (ip), vehicle: saline with Tween-80", "result": "98 % of control"}, {"measurement": "T/C", "setting": "[7]", "result": "97 % of control"}, {"measurement": "T/C", "setting": "[8]", "result": "95 % of control"}, {"measurement": "T/C", "setting": "dose: 400.0 mg/kg/injection, schedule: Q01DX001 (ip), vehicle: saline with Tween-80", "result": "104 % of control"}, {"measurement": "T/C", "setting": "[9]", "result": "103 % of control"}, {"measurement": "T/C", "setting": "[10]", "result": "93 % of control"}]}, {"smiles": "O=C(O)c1ccc(NC(=S)Nc2ccc(C(=O)O)cc2)cc1", "values": [{"measurement": "T/C", "setting": "[5]", "result": "93 % of control"}, {"measurement": "T/C", "setting": "dose: 100.0 mg/kg/injection, schedule: Q04DX003 (ip), vehicle: saline", "result": "94 % of control"}, {"measurement": "T/C", "setting": "[7]", "result": "112 % of control"}, {"measurement": "T/C", "setting": "dose: 200.0 mg/kg/injection, schedule: Q04DX003 (ip), vehicle: saline", "result": "100 % of control"}, {"measurement": "T/C", "setting": "[9]", "result": "93 % of control"}, {"measurement": "T/C", "setting": "dose: 400.0 mg/kg/injection, schedule: Q04DX003 (ip), vehicle: saline", "result": "104 % of control"}]}, {"smiles": "CCCCOC(=O)C(O)C(C)(Cl)c1ccccc1", "note": "(configuration not stated)", "values": [{"measurement": "T/C", "setting": "[11]", "result": "106 % of control"}, {"measurement": "T/C", "setting": "[12]", "result": "103 % of control"}, {"measurement": "T/C", "setting": "[13]", "result": "106 % of control"}]}, {"smiles": "N=C(N)SCCN1CCCCC1", "values": [{"measurement": "T/C", "setting": "dose: 75.0 mg/kg/injection, schedule: Q01DX001 (ip), vehicle: acetone", "result": "102 % of control"}, {"measurement": "T/C", "setting": "dose: 150.0 mg/kg/injection, schedule: Q01DX001 (ip), vehicle: acetone", "result": "100 % of control"}]}, {"smiles": "CN(C)C(=O)c1ccc(NC(=O)N(CCCl)N=O)cc1", "values": [{"measurement": "T/C", "setting": "dose: 0.5 mg/kg/injection, schedule: Q01DX001 (ip), vehicle: other", "result": "102 % of control"}, {"measurement": "T/C", "setting": "dose: 1.0 mg/kg/injection, schedule: Q01DX001 (ip), vehicle: other", "result": "120 % of control"}, {"measurement": "T/C", "setting": "dose: 2.0 mg/kg/injection, schedule: Q01DX001 (ip), vehicle: other", "result": "150 % of control"}, {"measurement": "T/C", "setting": "dose: 8.0 mg/kg/injection, schedule: Q01DX001 (ip), vehicle: other", "result": "182 % of control"}, {"measurement": "T/C", "setting": "dose: 16.0 mg/kg/injection, schedule: Q01DX001 (ip), vehicle: other", "result": "286 % of control"}, {"measurement": "T/C", "setting": "dose: 31.0 mg/kg/injection, schedule: Q01DX001 (ip), vehicle: other", "result": "88 % of control"}]}, {"smiles": "O=C1CCC[C@@H]2[C@H]3CCCN4CCC[C@@H](CN12)[C@@H]34", "values": [{"measurement": "T/C", "setting": "dose: 75.0 mg/kg/injection, schedule: Q01DX001 (ip), vehicle: saline", "result": "105 % of control"}, {"measurement": "T/C", "setting": "dose: 150.0 mg/kg/injection, schedule: Q01DX001 (ip), vehicle: saline", "result": "96 % of control"}]}, {"smiles": "c1ccc(CCSc2ccccc2)cc1", "values": [{"measurement": "T/C", "setting": "[5]", "result": "102 % of control"}, {"measurement": "T/C", "setting": "[6]", "result": "103 % of control"}, {"measurement": "T/C", "setting": "[7]", "result": "98 % of control"}, {"measurement": "T/C", "setting": "[8]", "result": "97 % of control"}, {"measurement": "T/C", "setting": "[9]", "result": "95 % of control"}, {"measurement": "T/C", "setting": "[10]", "result": "94 % of control"}]}, {"smiles": "NCCc1ccc(S(=O)(=O)O)cc1[N+](=O)[O-]", "values": [{"measurement": "T/C", "setting": "[1]", "result": "96 % of control"}, {"measurement": "T/C", "setting": "[2]", "result": "98 % of control"}, {"measurement": "T/C", "setting": "[3]", "result": "89 % of control"}, {"measurement": "T/C", "setting": "[4]", "result": "94 % of control"}, {"measurement": "T/C", "setting": "dose: 400.0 mg/kg/injection, schedule: Q04DX003 (ip), vehicle: Klucel (hydroxypropylcellulose) (HPC)", "result": "98 % of control"}]}, {"smiles": "O=C(Nc1cccc([N+](=O)[O-])c1)Nc1ccccc1F", "values": [{"measurement": "T/C", "setting": "[1]", "result": "91 % of control"}, {"measurement": "T/C", "setting": "[11]", "result": "108 % of control"}, {"measurement": "T/C", "setting": "[3]", "result": "101 % of control"}, {"measurement": "T/C", "setting": "[12]", "result": "91 % of control"}, {"measurement": "T/C", "setting": "dose: 400.0 mg/kg/injection, schedule: Q01DX009 (ip), vehicle: Klucel (hydroxypropylcellulose) (HPC)", "result": "101 % of control"}, {"measurement": "T/C", "setting": "[13]", "result": "94 % of control"}]}, {"smiles": "CCC(C)C(CN)(CCCCN1CCCC1)c1cccc2ccccc12", "note": "(configuration not stated)", "values": [{"measurement": "T/C", "setting": "[6]", "result": "102 % of control"}]}]}
